Read-outs that look alike come from different tables or passages of the source.

The subject of data set [1] is SMN2 minigene (full length SMN2 minigene mRNA containing SMN2 exon 7). The data set can be described thus: SMN2 minigene mRNA splicing RT-qPCR assay in cultured cells. The data set is classed as cell-based, human. The settings on record: Homo sapiens, HEK293-H, read-out: EC1.5x for production of full length SMN2 mRNA. In short, it runs like this: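 HEK293H cells stably carrying the SMN2-A minigene treated 24 h at 37° C with compound (DMSO, 200× stock), then lysed. Multiplex RT-qPCR (SMN primers 0.4 μM final; 40 cycles) measures full-length exon 7-containing minigene mRNA, normalized to GAPDH and to vehicle; EC1.5x derived and binned by stars.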

For the next data set, the system named is Smn protein. Put plainly: Smn protein assay in cultured cells (SMN HTRF). The settings on record: 48 hours; for maximum fold (Fold) increase of Smn protein: SMA patient fibroblast cells, 7-point concentration data, fold increase relative to vehicle control (SMN HTRF); for EC1.5x (concentration giving 1.5-fold Smn protein increase): SMA Type 1 patient fibroblast cells (GM03813), 7-point concentration curve, SMN HTRF, concentration producing 1.5 times Smn protein vs DMSO vehicle control, read-out: EC1.5x for Smn protein expression. It is filed as cell-based, human. In short, it runs like this: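 Lysates in RIPA with protease inhibitors are incubated overnight at room temperature with HTRF anti-SMN antibodies. EC1.5x is derived from fold increase in ΔF over vehicle.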
(In TR-FRET formats the signal depends on donor and acceptor labels being close together.)

Where [2] appears, read: HEK293H cells stably transfected with SMN2-A minigene, 24 hours, 7-point concentration curve, 1.5-fold relative to vehicle-treated cells.

For the compound `CCc1cn2cc(-c3cc4ccc(N5C[C@@H](C)N[C@@H](C)C5)cc4oc3=O)nc2s1` [Cpd 429, 7-[(3R,5S)-3,5-dimethylpiperazin-1-yl]-3-(2-ethylimidazo[2,1-b][1,3]thiazol-6-yl)-2H-chromen-2-one], the melting point (usually the temperature of the solid-liquid transition) fell in the range of 251 to 253 °C. Besides, the EC (1.5-fold) in data set [1] (setting [2]) fell in the range of 0.3 to 1 µM. The “maximum fold (Fold) increase of Smn protein” value (“maximum fold (Fold) increase” below) with Smn protein was “* (maximum fold increase of ≤1.2)”.

For the compound `Cc1cccn2cc(-c3cc4ccc(N5CCN[C@@H](C)C5)cc4oc3=O)nc12` [Compound 248, 3-(8-methylimidazo[1,2-a]pyridin-2-yl)-7-[(3S)-3-methylpiperazin-1-yl]-2H-chromen-2-one], the melting point was in the range of 162 to 166 °C. For the same compound, the EC (1.5-fold) in data set [1] (setting [2]) is 0.1 to 0.3 µM. Also, in the data set on Smn protein, the EC1.5x (concentration giving 1.5-fold Smn protein increase) is 1000 to 3000 nM; the “maximum fold (Fold) increase” value is “** (fold increase between >1.2 and ≤1.35)”.

Regarding `CN1CCN(c2ccc3cc(-c4cn5cc(C6CC6)cc(F)c5n4)c(=O)oc3c2)CC1` [Compound 504, 3-(6-cyclopropyl-8-fluoroimidazo[1,2-a]pyridin-2-yl)-7-(4-methylpiperazin-1-yl)-2H-chromen-2-one], the melting point was in the range of 277 to 287 °C. Moreover, the EC (1.5-fold) in data set [1] (setting [2]) was in the range of 1 to 3 µM. Moreover, the “maximum fold (Fold) increase” value in the data set with Smn protein is listed as “* (maximum fold increase of ≤1.2)”.

Consider `Cc1cn2cc(-c3cc4ccc(OC5CCN(C)CC5)cc4oc3=O)nc2c(C)n1` [Compound 867, 3-(6,8-dimethylimidazo[1,2-a]pyrazin-2-yl)-7-[(1-methylpiperidin-4-yl)oxy]-2H-chromen-2-one], for which the melting point is 165 to 168 °C. Besides, in data set [1] (setting [2]), the EC (1.5-fold) was under 0.1 µM. Moreover, in the data set with Smn protein, the EC1.5x (concentration giving 1.5-fold Smn protein increase) is under 300 nM; the “maximum fold (Fold) increase” value was “**** (fold increase between >1.5 and ≤1.65)”.

As to `C[C@@H]1CN(c2cc(F)c3cc(-c4nc5ccccc5[nH]4)c(=O)oc3c2)C[C@H](C)N1` [Compound 371, 3-(1H-benzimidazol-2-yl)-7-[(3R,5S)-3,5-dimethylpiperazin-1-yl]-5-fluoro-2H-chromen-2-one], the melting point fell in the range of 288 to 294 °C. Also, the EC (1.5-fold) in data set [1] (setting [2]) lay within 0.3 to 1 µM. For the same compound, the “maximum fold (Fold) increase” value in the data set with Smn protein is “* (maximum fold increase of ≤1.2)”.

`CNCCCc1ccc2cc(-c3cn4cc(C)nc(C)c4n3)c(=O)oc2c1` [Compound 912, 3-(6,8-dimethylimidazo[1,2-a]pyrazin-2-yl)-7-[3-(methylamino)propyl]-2H-chromen-2-one] gave a melting point of 197 to 201 °C. The EC (1.5-fold) in data set [1] (setting [2]) was under 0.1 µM. Moreover, in the data set with Smn protein, the EC1.5x (concentration giving 1.5-fold Smn protein increase) is under 300 nM; the “maximum fold (Fold) increase” value is “**** (fold increase between >1.5 and ≤1.65)”.

In turn, `Cc1cn2cc(-c3cc4ccc(C5CCN(C6CC6)CC5)cc4oc3=O)nc2c(C)n1` [Compound 854, 7-(1-cyclopropylpiperidin-4-yl)-3-(6,8-dimethylimidazo[1,2-a]pyrazin-2-yl)-2H-chromen-2-one] showed a melting point of 236 to 243 °C. The EC (1.5-fold) in data set [1] (setting [2]) is under 0.1 µM. Further, in the data set with Smn protein, the EC1.5x (concentration giving 1.5-fold Smn protein increase) was under 300 nM and the “maximum fold (Fold) increase” value was “***** (fold increase >1.65)”.

Compound `Cc1cn2cc(-c3cc4ccc(N5CCCNCC5)cc4oc3=O)nc2c(C)n1` [Compound 518, 7-(1,4-diazepan-1-yl)-3-(6,8-dimethylimidazo[1,2-a]pyrazin-2-yl)-2H-chromen-2-one] yielded a melting point of 188 to 190 °C. The EC (1.5-fold) in data set [1] (setting [2]) was under 0.1 µM. Further, in the data set on Smn protein, the EC1.5x (concentration giving 1.5-fold Smn protein increase) is under 300 nM and the “maximum fold (Fold) increase” value is given as “***** (fold increase >1.65)”.

On to `Cc1nn2cc(-c3cc4ccc(N5CCNCC5)cc4oc3=O)nc2s1` [Cpd 441, 3-(2-methylimidazo[2,1-b][1,3,4]thiadiazol-6-yl)-7-(piperazin-1-yl)-2H-chromen-2-one], for which the melting point fell in the range of 288 to 290 °C. The EC (1.5-fold) in data set [1] (setting [2]) is under 0.1 µM. For the same compound, the “maximum fold (Fold) increase” value in the data set with Smn protein was “*** (fold increase between >1.35 and ≤1.5)”.

Compound `COc1ccn2cc(-c3cc4ccc(N5CCN(C)CC5)cc4oc3=O)nc2c1` [Compound 435, 3-(7-methoxyimidazo[1,2-a]pyridin-2-yl)-7-(4-methylpiperazin-1-yl)-2H-chromen-2-one] came in with a melting point of 251 to 259 °C. In addition, in data set [1] (setting [2]), the EC (1.5-fold) was in the range of 1 to 3 µM. Besides, the “maximum fold (Fold) increase” value in the data set with Smn protein was “* (maximum fold increase of ≤1.2)”.

`CCc1ccn2cc(-c3cc4ccc(N5C[C@@H](C)N[C@@H](C)C5)cc4oc3=O)nc2c1` [Compound 289, 7-[(3R,5S)-3,5-dimethylpiperazin-1-yl]-3-(7-ethylimidazo[1,2-a]pyridin-2-yl)-2H-chromen-2-one] had a melting point of 183 to 188 °C. Moreover, the EC (1.5-fold) in data set [1] (setting [2]) was in the range of 0.3 to 1 µM. Besides, the “maximum fold (Fold) increase” value in the data set with Smn protein is “* (maximum fold increase of ≤1.2)”.

`Cc1nn2cc(-c3cc4ccc(N5CCN(C)CC5)cc4oc3=O)nc2s1` [Compound 442, 3-(2-methylimidazo[2,1-b][1,3,4]thiadiazol-6-yl)-7-(4-methylpiperazin-1-yl)-2H-chromen-2-one] registered a melting point of 233 to 236 °C. In addition, in data set [1] (setting [2]), the EC (1.5-fold) lay in the range of 3 to 30 µM. In addition, the “maximum fold (Fold) increase” value with Smn protein was “** (fold increase between >1.2 and ≤1.35)”.

Turning to `Cc1c(-c2nc3ccccc3s2)c(=O)oc2cc(N3CCNCC3)ccc12` [Compound 147, 3-(1,3-benzothiazol-2-yl)-4-methyl-7-(piperazin-1-yl)-2H-chromen-2-one], the melting point lay within 234 to 236 °C. The EC (1.5-fold) in data set [1] (setting [2]) was 1 to 3 µM. The “maximum fold (Fold) increase” value in the data set with Smn protein was “* (maximum fold increase of ≤1.2)”.

On to `Cc1cn2cc(-c3cc4ccc(C5CCNCC5)cc4oc3=O)nc2c(C)n1` [Cpd 742, 3-(6,8-dimethylimidazo[1,2-a]pyrazin-2-yl)-7-(piperidin-4-yl)-2H-chromen-2-one], for which the melting point was 224 to 229 °C. Further, the EC (1.5-fold) in data set [1] (setting [2]) was under 0.1 µM. Besides, in the data set with Smn protein, the EC1.5x (concentration giving 1.5-fold Smn protein increase) is under 300 nM and the “maximum fold (Fold) increase” value is “***** (fold increase >1.65)”.

As for `Cc1cn2cc(-c3cc4ccc(N5CCNCC5)cc4oc3=O)nc2cn1` [Compound 567, 3-(6-methylimidazo[1,2-a]pyrazin-2-yl)-7-(piperazin-1-yl)-2H-chromen-2-one], the melting point was 288 to 290 °C. In addition, in data set [1] (setting [2]), the EC (1.5-fold) was under 0.1 µM. In addition, in the data set with Smn protein, the EC1.5x (concentration giving 1.5-fold Smn protein increase) is under 300 nM and the “maximum fold (Fold) increase” value is reported as “***** (fold increase >1.65)”.

`CCCN1CCC(c2ccc3cc(-c4cn5cc(C)nc(C)c5n4)c(=O)oc3c2)CC1` [Compound 842, 3-(6,8-dimethylimidazo[1,2-a]pyrazin-2-yl)-7-(1-propylpiperidin-4-yl)-2H-chromen-2-one] yielded a melting point of 208 to 212 °C. The EC (1.5-fold) in data set [1] (setting [2]) was under 0.1 µM. Moreover, in the data set on Smn protein, the EC1.5x (concentration giving 1.5-fold Smn protein increase) was under 300 nM and the “maximum fold (Fold) increase” value is on record as “***** (fold increase >1.65)”.

The compound `CCN1CCC(c2ccc3cc(-c4cn5cc(C)ncc5n4)c(=O)oc3c2)CC1` [Compound 844, 7-(1-ethylpiperidin-4-yl)-3-(6-methylimidazo[1,2-a]pyrazin-2-yl)-2H-chromen-2-one] yielded a melting point of 249 to 259 °C. The EC (1.5-fold) in data set [1] (setting [2]) is under 0.1 µM. Also, in the data set with Smn protein, the EC1.5x (concentration giving 1.5-fold Smn protein increase) lay within 300 to 1000 nM; the “maximum fold (Fold) increase” value was “**** (fold increase between >1.5 and ≤1.65)”.

Consider `Cc1ccn2nc(-c3cc4ccc(N5CCNCC5)cc4oc3=O)cc2c1` [Compound 302, 3-(5-methylpyrazolo[1,5-a]pyridin-2-yl)-7-(piperazin-1-yl)-2H-chromen-2-one], for which the melting point fell in the range of 228 to 231 °C. Moreover, the EC (1.5-fold) in data set [1] (setting [2]) was in the range of 0.1 to 0.3 µM. Further, in the data set with Smn protein, the EC1.5x (concentration giving 1.5-fold Smn protein increase) is 300 to 1000 nM; the “maximum fold (Fold) increase” value is “*** (fold increase between >1.35 and ≤1.5)”.

On to `COc1cccn2cc(-c3cc4ccc(N5C[C@@H](C)N[C@@H](C)C5)cc4oc3=O)nc12` [Compound 418, 7-[(3R,5 S)-3,5-dimethylpiperazin-1-yl]-3-(8-methoxyimidazo[1,2-a]pyridin-2-yl)-2H-chromen-2-one], for which the melting point was in the range of 184 to 186 °C. Besides, the EC (1.5-fold) in data set [1] (setting [2]) fell in the range of 1 to 3 µM. Further, in the data set on Smn protein, the EC1.5x (concentration giving 1.5-fold Smn protein increase) is 300 to 1000 nM; the “maximum fold (Fold) increase” value was “**** (fold increase between >1.5 and ≤1.65)”.

Compound `Cc1cn2cc(-c3cc4ccc(CNC(C)C)cc4oc3=O)nc2c(C)n1` [Compound 850, 3-(6,8-dimethylimidazo[1,2-a]pyrazin-2-yl)-7-[(propan-2-ylamino)methyl]-2H-chromen-2-one] had a melting point of 285 to 291 °C. The EC (1.5-fold) in data set [1] (setting [2]) lay within 0.3 to 1 µM. Besides, the “maximum fold (Fold) increase” value in the data set with Smn protein is “** (fold increase between >1.2 and ≤1.35)”.

`C[C@H]1CN(c2ccc3cc(-c4ccccn4)c(=O)oc3c2)CCN1` [Compound 444, 7-[(3S)-3-methylpiperazin-1-yl]-3-(pyridin-2-yl)-2H-chromen-2-one] gave a melting point of 145 to 147 °C. Also, the EC (1.5-fold) in data set [1] (24 h) lay in the range of 3 to 30 µM. Also, in the data set with Smn protein, the “maximum fold (Fold) increase” value is listed as “* (maximum fold increase of ≤1.2)”.

(Values after patent publication USRE47689E1, “Compounds for treating spinal muscular atrophy” (PTC Therapeutics, Inc., priority 2011, dated 2019).)
